# Source: patent US12590067B2, “Herbicidal cyclohexanedione derivatives” (SYNGENTA CROP PROTECTION AG, priority 2019, dated 2026)
# What was measured:
# Test in all cases: Glasshouse herbicidal test, pre- and post-emergence, percentage damage to the plant
# Assay type in all cases: in vivo
# [1] = test system: Alopecurus myosuroides (ALOMY); details: 250 g/h, evaluated after 13 days; for ALOMY POST percentage damage caused to the plant (five-point scale): post-emergence; for ALOMY PRE percentage damage caused to the plant (five-point scale): pre-emergence
# Protocol: (§1) Seeds of a variety of test species are sown in standard soil in pots (Lolium perenne (LOLPE), Setaria faberi (SETFA), Alopecurus myosuroides (ALOMY), Echinochloa crus-galli (ECHCG), Avena fatua (AVEFA)). After cultivation for one day (pre-emergence) or after 8 days cultivation (post-emergence) under controlled conditions in a glasshouse (at 24/16° C., day/night; 14 hours light; 65% humidity), the plants are sprayed with an aqueous spray solution derived from the formulation of the technical active ingredient in acetone/water (50:50) solution containing 0.5% Tween 20 (polyoxyethelyene sorbitan monolaurate, CAS RN 9005-64-5). Compounds are applied at 250 g/h. The test plants are then grown in a glasshouse under controlled conditions in a glasshouse (at 24/16° C., day/night; 14 hours light; 65% humidity) and watered twice daily. After 13 days for pre and post-emergence, the test is evaluated for the percentage damage caused to the plant. The biological activities are shown in the following table on a five-point scale (5=80-100%; 4=60-79%; 3=40-59%; 2=20-39%; 1=0-19%).
# Avena fatua (AVEFA) = details: 250 g/h, evaluated after 13 days; for AVEFA POST percentage damage caused to the plant (five-point scale): post-emergence; for AVEFA PRE percentage damage caused to the plant (five-point scale): pre-emergence
# Protocol: as §1
# [2] = test system: Echinochloa crus-galli (ECHCG); details: 250 g/h, evaluated after 13 days; for ECHCG POST percentage damage caused to the plant (five-point scale): post-emergence; for ECHCG PRE percentage damage caused to the plant (five-point scale): pre-emergence
# Protocol: as §1
# Lolium perenne (LOLPE) = details: 250 g/h, evaluated after 13 days; for LOLPE POST percentage damage caused to the plant (five-point scale): post-emergence; for LOLPE PRE percentage damage caused to the plant (five-point scale): pre-emergence
# Protocol: as §1
# Setaria faberi (SETFA) = details: 250 g/h, evaluated after 13 days; for SETFA POST percentage damage caused to the plant (five-point scale): post-emergence; for SETFA PRE percentage damage caused to the plant (five-point scale): pre-emergence
# Protocol: as §1
Compound,ALOMY POST percentage damage caused to the plant (five-point scale) [1],ALOMY PRE percentage damage caused to the plant (five-point scale) [1],AVEFA POST percentage damage caused to the plant (five-point scale) (Avena fatua (AVEFA)),AVEFA PRE percentage damage caused to the plant (five-point scale) (Avena fatua (AVEFA)),ECHCG POST percentage damage caused to the plant (five-point scale) [2],ECHCG PRE percentage damage caused to the plant (five-point scale) [2],LOLPE POST percentage damage caused to the plant (five-point scale) (Lolium perenne (LOLPE)),LOLPE PRE percentage damage caused to the plant (five-point scale) (Lolium perenne (LOLPE)),SETFA POST percentage damage caused to the plant (five-point scale) (Setaria faberi (SETFA)),SETFA PRE percentage damage caused to the plant (five-point scale) (Setaria faberi (SETFA))
COc1cc(-c2ccc(C#N)cn2)cc(Cl)c1C1C(=O)CC2(CCN(C(=O)C3CC3)CC2)CC1=O [Compound A35],5 (5=80-100%),5 (5=80-100%),5 (5=80-100%),5 (5=80-100%),5 (5=80-100%),5 (5=80-100%),5 (5=80-100%),5 (5=80-100%),5 (5=80-100%),5 (5=80-100%)
CC#Cc1cc(C)c(C2C(=O)CC3(CCN(C(C)=O)CC3)CC2=O)c(CC)c1 [Compound A47],5 (5=80-100%),5 (5=80-100%),5 (5=80-100%),5 (5=80-100%),5 (5=80-100%),5 (5=80-100%),5 (5=80-100%),5 (5=80-100%),5 (5=80-100%),5 (5=80-100%)
CC#Cc1cc(CC)c(C2C(=O)CC3(CCN(C(C)=O)CC3)CC2=O)c(CC)c1 [Compound A48],5 (5=80-100%),5 (5=80-100%),5 (5=80-100%),5 (5=80-100%),5 (5=80-100%),4 (4=60-79%),5 (5=80-100%),5 (5=80-100%),5 (5=80-100%),5 (5=80-100%)
CC#Cc1cc(Cl)c(C2C(=O)CC3(CCN(C(C)=O)CC3)CC2=O)c(CC)c1 [Compound A49],5 (5=80-100%),5 (5=80-100%),5 (5=80-100%),5 (5=80-100%),5 (5=80-100%),5 (5=80-100%),5 (5=80-100%),5 (5=80-100%),5 (5=80-100%),5 (5=80-100%)
"CCc1cc(-c2ccc(C#N)cn2)cc(C)c1C1C(=O)CC2(CCN(C(=O)C3CC3)CC2)CC1=O [Compound A51, 6-[4-[3-(cyclopropanecarbonyl)-8,10-dioxo-3-azaspiro[5.5]undecan-9-yl]-3-ethyl-5-methyl-phenyl]pyridine-3-carbonitrile]",5 (5=80-100%),5 (5=80-100%),5 (5=80-100%),5 (5=80-100%),5 (5=80-100%),4 (4=60-79%),5 (5=80-100%),5 (5=80-100%),5 (5=80-100%),5 (5=80-100%)
CCc1cc(-c2ccc(C#N)cn2)cc(CC)c1C1C(=O)CC2(CCN(C(=O)C3CC3)CC2)CC1=O [Compound A52],5 (5=80-100%),5 (5=80-100%),5 (5=80-100%),5 (5=80-100%),5 (5=80-100%),5 (5=80-100%),5 (5=80-100%),5 (5=80-100%),5 (5=80-100%),5 (5=80-100%)
